{
  "source": "paper PMC4769951",
  "about": "(Bioorganic & medicinal chemistry, 2016)",
  "key": {"[1]": {"experiment": "Plasma stability, rat plasma", "type": "in vitro ADME", "conditions": "female, Sprague-Dawley, pooled plasma"}, "[2]": {"system": "Caco-2 cells", "conditions": "cited from earlier work"}, "[3]": {"experiment": "Plasma stability, mouse plasma", "type": "in vitro ADME", "conditions": "female, CD-1, mouse, pooled plasma"}, "[4]": {"conditions": "in vivo, cited from earlier work"}, "[5]": {"experiment": "Plasma stability, human plasma", "type": "in vitro ADME", "conditions": "female, pooled plasma"}, "[6]": {"experiment": "Aqueous stability in simulated gastric fluid", "type": "physicochemical", "conditions": "37 °C"}},
  "data": [
    {"compound": "Nc1ncnc2c1ncn2[C@@H]1O[C@H](CNS(=O)(=O)NC(=O)c2ccccc2O)[C@@H](O)[C@H]1F", "note": "[Compound 2]", "values": [
      {"measurement": "remaining at 6 h, 200 µM", "setting": "[1]", "value": 100, "unit": "%"},
      {"measurement": "Caco-2 permeability relative to 1", "setting": "[2]", "value": 3.5, "unit": "fold"},
      {"measurement": "Efflux ratio", "setting": "[2]", "value": 0.3},
      {"measurement": "Papp AP-BL", "setting": "[2]", "value": 4.2, "unit": "×10⁻⁶ cm/s"},
      {"measurement": "Papp BL-AP", "setting": "[2]", "value": 1.3, "unit": "×10⁻⁶ cm/s"},
      {"measurement": "remaining at 6 h, 200 µM", "setting": "[3]", "value": 100, "unit": "%"},
      {"measurement": "Oral exposure relative to 1", "setting": "[4]; po", "value": 3, "unit": "fold"},
      {"measurement": "Clearance relative to 1", "setting": "[4]", "value": 3, "unit": "fold"},
      {"measurement": "remaining at 6 h, 200 µM", "setting": "[5]", "value": 100, "unit": "%"}
    ]},
    {"compound": "CCCCCCCCCCCC(=O)O[C@H]1[C@@H](F)[C@H](n2cnc3c(N)ncnc32)O[C@@H]1CNS(=O)(=O)NC(=O)c1ccccc1O.CCN(CC)CC", "note": "[Compound 8, 9-[2,5-Dideoxy-3-O-(dodecanoyl)-2-fluoro-5-{N-(N-2-hydroxybenzoyl)sulfamoyl}amino-β-D-ribofuranosyl]adenine Triethylammonium Salt]", "values": [
      {"measurement": "Chemical hydrolysis to release the parent drug 2", "setting": "[6]; pH 1.2, 2 h", "value": "not observed"}
    ]},
    {"compound": "CC(=O)O[C@H]1[C@@H](F)[C@H](n2cnc3c(N)ncnc32)O[C@@H]1CNS(=O)(=O)NC(=O)c1ccccc1O.CCN(CC)CC", "note": "[Compound 3, 9-[3-O-(Acetyl)-2,5-dideoxy-2-fluoro-5-{N-(N-2-hydroxybenzoyl)sulfamoyl}amino-β-D-ribofuranosyl]adenine Triethylammonium Salt]", "values": [
      {"measurement": "% hydrolyzed to parent drug 2", "setting": "[6]; pH 7.4, 2 h", "value": 8, "unit": "%"}
    ]}
  ]
}
